Values quoted from earlier work in patent US20090215892A1, “Octanol Formulations and Methods of Treatment Using the Same” (priority 2005, published 2009).

Tests used:
mice = conditions: tested orally in mice
essential tremor [1] = conditions: twelve patients
essential tremor [2] = conditions: lactose capsule form
[3] = ordinary conditions of use and storage
[4] = system: hereditary essential tremor; conditions: patients with hereditary essential tremor

CCCCCCCCO [Example 1-octanol, 1-octanol]
solubility in water: slightly soluble | Solubility in Water at 40° C. (Wt %): 0.065 Wt % | toxicity LD5O (mice): 1790 mg/kg | duration of reduction of peak tremor amplitude versus baseline (essential tremor [1]; 1 mg/kg 1-octanol, no improvement in placebo group (Bushara 2002)): up to 2 hours | change of tremor amplitude frequency (essential tremor [1]; single oral dose of 1 mg/kg, anhydrous lactose coated capsule (Bushara 2004)): decrease | side-effect noted (essential tremor [2]; single oral doses up to 64 mg/kg): unusual taste | tolerated dose (essential tremor [2]; single oral doses, patients with essential tremor): up to 64 mg/kg | stability [3]: stable

CCO [ethanol]
patients in whom treatment was effective [4]: 50%

CCCCC(O)CCC (centres unmarked) [Example 4-octanol, 4-octanol]
Solubility in Water at 40° C. (Wt %): 0.095 Wt %

CCCCCCC(C)O (centres unmarked) [Example 2-octanol, 2-octanol]
Solubility in Water at 40° C. (Wt %): 0.089 Wt %
